Laboratory results: ChEMBL document CHEMBL1152776, “Facile synthesis of diazido-functionalized biaryl compounds as radioisotope-free photoaffinity probes by Suzuki-Miyaura coupling” (Bioorg Med Chem, 2009)
Calls of active or inactive are those of the source. The rule behind the calls is not given here.

How the values were obtained:
[1] = species on record: Mus musculus; test: Inhibition of Ca2+-induced calcium release in mouse sarcoplasmic reticular skeletal muscle at 50 uM; format: functional
[2] = test system: Muscle tissue; test: Inhibition of physiological calcium release in mouse sarcoplasmic reticular skeletal muscle at 50 uM; format: functional, tissue-based
[3] = test system: Muscle tissue; test: Inhibition of physiological calcium release in mouse sarcoplasmic reticular skeletal muscle; format: functional, tissue-based
[4] = target: Ryanodine receptor 1 (Homo sapiens) (UniProt P21817); test: Binding affinity to RyR1 by photolabeling experiment
Sequence of Ryanodine receptor 1 (Homo sapiens) (P21817 whole entry): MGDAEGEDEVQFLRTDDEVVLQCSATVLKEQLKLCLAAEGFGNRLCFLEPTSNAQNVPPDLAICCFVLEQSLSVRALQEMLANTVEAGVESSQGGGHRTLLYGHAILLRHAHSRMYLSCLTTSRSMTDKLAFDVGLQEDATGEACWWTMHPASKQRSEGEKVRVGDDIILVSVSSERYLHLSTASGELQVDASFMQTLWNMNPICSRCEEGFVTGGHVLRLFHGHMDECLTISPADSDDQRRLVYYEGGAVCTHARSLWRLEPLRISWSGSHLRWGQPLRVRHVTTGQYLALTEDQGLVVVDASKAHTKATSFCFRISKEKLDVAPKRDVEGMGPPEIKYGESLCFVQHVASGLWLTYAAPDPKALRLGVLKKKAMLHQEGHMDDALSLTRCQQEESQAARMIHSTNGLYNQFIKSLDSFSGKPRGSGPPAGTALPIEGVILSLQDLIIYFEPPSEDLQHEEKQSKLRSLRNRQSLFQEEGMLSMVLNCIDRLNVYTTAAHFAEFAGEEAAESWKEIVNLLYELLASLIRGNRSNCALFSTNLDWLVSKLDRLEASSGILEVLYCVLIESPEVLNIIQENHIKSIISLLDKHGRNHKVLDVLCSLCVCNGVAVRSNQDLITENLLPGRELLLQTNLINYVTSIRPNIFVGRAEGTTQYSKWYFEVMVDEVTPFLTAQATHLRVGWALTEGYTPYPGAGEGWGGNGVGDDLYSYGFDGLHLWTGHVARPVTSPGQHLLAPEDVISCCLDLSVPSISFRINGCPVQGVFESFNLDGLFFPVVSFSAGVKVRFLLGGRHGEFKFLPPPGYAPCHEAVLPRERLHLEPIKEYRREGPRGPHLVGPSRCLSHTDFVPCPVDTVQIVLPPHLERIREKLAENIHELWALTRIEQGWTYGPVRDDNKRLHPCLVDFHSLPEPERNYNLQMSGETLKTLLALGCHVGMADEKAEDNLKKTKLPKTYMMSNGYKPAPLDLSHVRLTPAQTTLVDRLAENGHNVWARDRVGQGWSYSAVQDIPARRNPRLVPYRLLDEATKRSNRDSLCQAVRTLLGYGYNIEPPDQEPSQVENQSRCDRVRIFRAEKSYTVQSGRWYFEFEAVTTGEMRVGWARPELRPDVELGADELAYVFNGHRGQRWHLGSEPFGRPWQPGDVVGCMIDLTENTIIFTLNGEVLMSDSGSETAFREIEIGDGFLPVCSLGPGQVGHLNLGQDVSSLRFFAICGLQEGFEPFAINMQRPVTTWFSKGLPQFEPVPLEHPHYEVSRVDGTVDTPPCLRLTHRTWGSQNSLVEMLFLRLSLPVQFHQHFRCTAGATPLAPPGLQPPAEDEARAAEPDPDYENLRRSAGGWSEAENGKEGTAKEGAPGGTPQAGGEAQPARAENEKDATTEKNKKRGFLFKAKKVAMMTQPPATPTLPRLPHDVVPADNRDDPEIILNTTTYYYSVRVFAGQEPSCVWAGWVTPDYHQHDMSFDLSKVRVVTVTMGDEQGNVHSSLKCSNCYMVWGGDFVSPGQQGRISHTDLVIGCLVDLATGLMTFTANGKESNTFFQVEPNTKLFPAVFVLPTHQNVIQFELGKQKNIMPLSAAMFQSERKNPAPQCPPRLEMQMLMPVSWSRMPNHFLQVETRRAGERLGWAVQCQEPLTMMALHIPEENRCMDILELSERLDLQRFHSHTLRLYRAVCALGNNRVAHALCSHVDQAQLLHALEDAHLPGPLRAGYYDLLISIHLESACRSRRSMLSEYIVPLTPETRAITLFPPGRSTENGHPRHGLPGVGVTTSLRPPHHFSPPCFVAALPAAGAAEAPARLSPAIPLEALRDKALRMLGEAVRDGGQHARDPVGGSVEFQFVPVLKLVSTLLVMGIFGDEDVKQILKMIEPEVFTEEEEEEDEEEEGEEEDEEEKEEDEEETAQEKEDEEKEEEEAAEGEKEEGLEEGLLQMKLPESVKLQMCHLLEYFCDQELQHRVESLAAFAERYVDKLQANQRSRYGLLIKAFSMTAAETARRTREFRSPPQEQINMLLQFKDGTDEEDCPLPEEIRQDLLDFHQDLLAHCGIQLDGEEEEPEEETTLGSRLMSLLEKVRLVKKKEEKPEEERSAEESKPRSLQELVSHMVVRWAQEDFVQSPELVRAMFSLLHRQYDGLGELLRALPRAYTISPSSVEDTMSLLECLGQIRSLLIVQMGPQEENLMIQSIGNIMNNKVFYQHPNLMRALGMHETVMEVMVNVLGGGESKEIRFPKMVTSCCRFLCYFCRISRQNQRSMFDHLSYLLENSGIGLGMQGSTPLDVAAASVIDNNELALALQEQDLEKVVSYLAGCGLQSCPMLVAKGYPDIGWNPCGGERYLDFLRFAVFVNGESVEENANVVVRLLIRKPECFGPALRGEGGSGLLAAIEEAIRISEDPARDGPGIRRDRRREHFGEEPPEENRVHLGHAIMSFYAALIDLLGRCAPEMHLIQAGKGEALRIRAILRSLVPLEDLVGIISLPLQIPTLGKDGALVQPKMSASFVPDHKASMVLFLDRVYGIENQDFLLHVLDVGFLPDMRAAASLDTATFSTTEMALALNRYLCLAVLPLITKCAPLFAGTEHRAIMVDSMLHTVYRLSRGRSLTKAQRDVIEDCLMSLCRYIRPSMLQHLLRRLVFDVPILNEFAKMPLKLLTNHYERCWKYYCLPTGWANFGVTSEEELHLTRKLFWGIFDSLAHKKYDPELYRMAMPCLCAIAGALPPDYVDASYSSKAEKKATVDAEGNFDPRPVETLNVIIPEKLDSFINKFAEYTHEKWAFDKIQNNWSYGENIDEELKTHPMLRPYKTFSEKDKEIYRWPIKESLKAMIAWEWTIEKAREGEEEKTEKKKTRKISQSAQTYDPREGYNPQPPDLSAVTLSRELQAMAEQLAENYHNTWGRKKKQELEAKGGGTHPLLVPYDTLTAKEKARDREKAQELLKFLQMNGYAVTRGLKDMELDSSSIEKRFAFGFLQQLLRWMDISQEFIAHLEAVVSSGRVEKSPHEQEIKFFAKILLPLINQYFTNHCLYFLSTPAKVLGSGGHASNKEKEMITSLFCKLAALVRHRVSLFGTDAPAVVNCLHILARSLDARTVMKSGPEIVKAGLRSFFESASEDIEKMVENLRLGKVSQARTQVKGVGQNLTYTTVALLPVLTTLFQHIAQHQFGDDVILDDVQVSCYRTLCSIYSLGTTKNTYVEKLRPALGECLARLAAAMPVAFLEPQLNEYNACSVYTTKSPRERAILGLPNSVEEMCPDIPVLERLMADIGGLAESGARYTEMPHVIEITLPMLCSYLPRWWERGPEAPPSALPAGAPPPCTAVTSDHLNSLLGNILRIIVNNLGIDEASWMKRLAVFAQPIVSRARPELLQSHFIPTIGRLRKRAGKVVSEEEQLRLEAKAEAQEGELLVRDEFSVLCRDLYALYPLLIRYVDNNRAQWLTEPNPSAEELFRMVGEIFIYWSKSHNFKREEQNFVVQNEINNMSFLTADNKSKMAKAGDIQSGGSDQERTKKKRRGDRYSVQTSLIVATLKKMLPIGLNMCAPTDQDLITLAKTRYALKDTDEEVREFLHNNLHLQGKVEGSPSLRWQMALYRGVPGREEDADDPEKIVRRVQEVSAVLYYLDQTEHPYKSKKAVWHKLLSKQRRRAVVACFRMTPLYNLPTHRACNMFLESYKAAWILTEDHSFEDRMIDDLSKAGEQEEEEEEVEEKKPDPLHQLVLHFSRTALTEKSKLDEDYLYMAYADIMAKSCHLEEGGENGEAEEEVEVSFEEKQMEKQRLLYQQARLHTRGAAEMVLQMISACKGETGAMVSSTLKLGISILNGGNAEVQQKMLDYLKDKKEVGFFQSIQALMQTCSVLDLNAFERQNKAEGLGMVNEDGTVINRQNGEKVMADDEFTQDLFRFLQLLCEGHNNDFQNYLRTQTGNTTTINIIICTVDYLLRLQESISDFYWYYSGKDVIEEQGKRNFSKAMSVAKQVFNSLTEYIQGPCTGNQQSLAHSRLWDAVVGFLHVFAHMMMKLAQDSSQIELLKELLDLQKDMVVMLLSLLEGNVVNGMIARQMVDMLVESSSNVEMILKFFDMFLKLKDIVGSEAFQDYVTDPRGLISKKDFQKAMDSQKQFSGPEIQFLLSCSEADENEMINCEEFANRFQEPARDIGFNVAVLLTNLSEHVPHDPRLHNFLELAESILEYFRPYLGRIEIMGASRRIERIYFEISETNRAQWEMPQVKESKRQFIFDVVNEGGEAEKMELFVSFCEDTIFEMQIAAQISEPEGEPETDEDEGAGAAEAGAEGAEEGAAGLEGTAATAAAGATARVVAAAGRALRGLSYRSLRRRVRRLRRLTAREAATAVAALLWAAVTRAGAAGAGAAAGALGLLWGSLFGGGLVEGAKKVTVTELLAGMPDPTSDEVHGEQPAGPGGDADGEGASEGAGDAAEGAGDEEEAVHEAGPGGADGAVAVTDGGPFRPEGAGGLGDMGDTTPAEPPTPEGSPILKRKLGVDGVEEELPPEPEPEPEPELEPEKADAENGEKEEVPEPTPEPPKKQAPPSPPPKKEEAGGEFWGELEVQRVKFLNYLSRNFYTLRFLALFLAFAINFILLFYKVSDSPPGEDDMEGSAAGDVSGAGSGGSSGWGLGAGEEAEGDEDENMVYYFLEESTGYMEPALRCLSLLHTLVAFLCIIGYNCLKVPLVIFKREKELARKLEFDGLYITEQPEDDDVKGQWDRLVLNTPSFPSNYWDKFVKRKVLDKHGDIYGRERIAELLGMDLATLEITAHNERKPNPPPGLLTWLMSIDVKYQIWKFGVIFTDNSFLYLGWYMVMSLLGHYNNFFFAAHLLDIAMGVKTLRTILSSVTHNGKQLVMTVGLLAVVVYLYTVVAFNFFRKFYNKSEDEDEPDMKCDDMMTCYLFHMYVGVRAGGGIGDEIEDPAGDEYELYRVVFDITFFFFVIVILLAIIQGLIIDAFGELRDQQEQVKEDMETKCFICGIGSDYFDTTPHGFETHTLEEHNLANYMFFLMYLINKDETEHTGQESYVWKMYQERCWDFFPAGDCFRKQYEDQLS

[5] = species on record: Mus musculus; test: Inhibition of Ca2+-induced calcium release in mouse sarcoplasmic reticular skeletal muscle; format: functional
[6] = tested as the 125I-labelled form

For `[N-]=[N+]=Nc1ccc(-c2ccc(/C=N/N3CC(=O)NC3=O)o2)cc1`, the Activity [1] was “Active” and the Activity [2] was “Active”.
With `[N-]=[N+]=NCc1cc(CN2C(=O)CN(/N=C/c3ccc(-c4ccc([N+](=O)[O-])cc4)o3)C2=O)cc(N=[N+]=[N-])c1` the Activity [3] was “Active” and the Activity [4] was “inactive”.
For `[N-]=[N+]=NCc1cc(N=[N+]=[N-])cc(-c2ccc(/C=N/N3CC(=O)NC3=O)o2)c1`, the Activity [5] was “inactive” and the Activity [3] was “Active”.
With `[N-]=[N+]=Nc1cc(I)cc(CN2C(=O)CN(/N=C/c3ccc(-c4ccc([N+](=O)[O-])cc4)o3)C2=O)c1` the Activity [5, 6] was “inactive”, the Activity [3, 6] was “Active” and the Activity [4, 6] was “inactive”.
